“Also recorded” adds a separate entry of the source. Values belong to the substance of their own block, whether it stands above or below them.
What was measured:
Format in all cases: physicochemical
[1] = Vaporization temperature from endothermic peaks of TG-DSC curves; conditions: for Vaporization temp.: endothermic peak of TG-DSC curve
Description: (§1) The physical properties set forth in Tables 1 and 2 were measured by the following method: the melting point and vaporization temperature were measured from endothermic peaks of TG-DSC curves. However, the values indicated by the symbol * in Table 1 were measured by a melting point-measuring device, because the heat absorption by vaporization occurred along with the melting of the precursors during the measurement. The residue amounts were measured by thermal gravimetric analysis (TGA) under atmospheric pressure (N2, 20 ml/min) and recorded as residual weight of the precursors at 550° C.
(§2) TG-DSC analysis for the precursor Ti(eip)2 according to Example 11 and the precursor Ti(2meip)2 according to Example 12 was carried out under atmospheric pressure in nitrogen gas or in air, and under a reduced pressure (1.3 mbar) using Netzsch STA 449C equipment. In this analysis, the precursors were heated to 550° C. at a scanning rate of 10° C./min in nitrogen gas of a flow rate of 20 ml/min, or in air of a flow rate of 30 ml/min.
(§3) (see, FIG. 1b). […] This difference is due to that Ti(2meip)2 has a relatively weak Ti-N bond compared with a Ti-O bond and has a homoleptic structure.

[2] = Residue amount by thermal gravimetric analysis (TGA); conditions: for Residue amount: TGA, atmospheric pressure, N2 20 ml/min, residual weight at 550° C.; for Residues after being vaporized: in words
Description: as §1

[3] = TG-DSC analysis in air (thermal decomposition); conditions: for Thermal decomposition behaviour (exothermic peak): in words
Description: as §2, §3

[4] = Solubility of precursor in organic solvents; conditions: for Solubility in methanol: 0.5 g in 5 ml of methanol; for Solubility in n-butyl acetate: 0.5 g in 5 ml of n-butyl acetate
Description: To evaluate solubility of precursors required in introducing the precursors in liquid phase for the deposition of thin films, the precursor Ti(eip)2 prepared in Example 11 and the precursor Ti(2meip)2 prepared in Example 12 were dissolved in methanol and n-butyl acetate, respectively. […] In contrast, 0.5 g of the precursor Ti(2meip)2 containing asymmetric carbons on its ligand was soluble in both methanol and n-butyl acetate.

[5] = Moisture proof of precursor (left to stand in air, NMR analysis); conditions: left to stand in air for three months or more
Description: 1.0 g of the precursor Ti(eip)2 prepared in Example 11 and 1.0 9 of the precursor Ti(2meip)2 prepared in Example 12 were placed in vials, respectively, and left to stand in air for three months or more. The analysis by NMR of the precursors was then carried out.

[6] = Vaporization rates according to temperature by thermogravimetric analysis (FIG. 4); conditions: vs Ti(mpd)(thd)2, Ti(thd)2(O-iPr)2, Ba(methd)2, Sr(methd)2
Excerpt: Moreover, vaporization rates of the precursor Ti(2meip)2 was compared to that of the commercial precursors Ti(mpd)(thd)2, Ti(thd)2 (O-iPr)2, Ba(methd)2 and Sr(methd)2 The results are shown in FIG. 4.

Substance: Barium bis[1-methoxyethoxy-2,2,6,6-tetramethyl-3,5-heptanedionate] [Ba(methd)2, reference compound]
- Vaporization temp. ([1]; Table 2, prior art precursors): 391 °C
- Residue amount ([2]; Table 2, prior art precursors): 8.3%

Substance: Strontium bis[1-methoxyethoxy-2,2,6,6-tetramethyl-3,5-heptanedionate] [Sr(methd)2, reference compound]
- Vaporization temp. ([1]; Table 2, prior art precursors): 389 °C
- Residue amount ([2]; Table 2, prior art precursors): 3.1%

Substance: Titanium [2-methyl-2,4-dioxy-pentane]-bis[(2,2,6,6-tetramethyl-3,5-heptanedionate)] [Ti(mpd)(thd)2, reference compound]
- Vaporization temp. ([1]; Table 2, prior art precursors): 248 °C
- Residue amount ([2]; Table 2, prior art precursors): <0.5%
- Thermal decomposition behaviour (exothermic peak) [3]: weak exothermic peak over a wide range of temperature

Substance: Titanium bis[2,2-dimethyl-5-(2-methylethoxy)imino-3-heptanoate] [Ti(22dm2meih)2]
- Vaporization temp. ([1]; Table 1): 287 °C
- Temperature at which the precursor is vaporized ([1]; atmospheric pressure / nitrogen atmosphere, without thermal decomposition): 287 °C
- Residue amount ([2]; Table 1): 0.5%
- Residues after being vaporized [2]: no residues
- Enhanced solubility over the precursor Ti(2meip)2 ([4]; relative to Ti(2meip)2): 20%

Substance: Titanium bis[4-(1,1-dimethylethoxy)imino-2-pentanoate] [Ti(1deip)2]
- Vaporization temp. ([1]; Table 1): 290 °C
- Residue amount ([2]; Table 1): 13.7%

Substance: Titanium bis[4-(1-methylethoxy)imino-2-pentanoate] [Ti(1meip)2]
- Vaporization temp. ([1]; Table 1): 295 °C
- Residue amount ([2]; Table 1): 3.3%

Substance: Titanium bis[4-(2-methylethoxy)imino-2-pentanoate] [Ti(2meip)2]
- Vaporization temp. ([1]; Table 1): 290 °C
- Residue amount ([2]; Table 1): <0.5%
- Residues after being vaporized [2]: no residues
- Stability on standing in air (NMR) [5]: no peaks of non-coordinated ligands; also recorded: not structurally changed
- Solubility in methanol [4]: soluble
- Solubility in n-butyl acetate [4]: soluble
- Thermal decomposition, exothermic peak temperature ([3]; TG-DSC in air, 30 ml/min, 10° C./min): about 315 °C
- Vapor pressure at the respective temperatures compared to the commercial precursors [6]: low in their vapor pressure

Further lines, with some results ahead:

- Vaporization temp. ([1]; Table 2, prior art precursors): 240 °C
- Residue amount ([2]; Table 2, prior art precursors): 7%
Substance: Titanium bis(iso-propoxide)bis[(2,2,6,6-tetramethyl-3,5-heptanedionate)] [Ti(OiPr)2(thd)2, reference compound]
- Thermal decomposition behaviour (exothermic peak) [3]: weak exothermic peak over a wide range of temperature

- Vaporization temp. ([1]; Table 1): 307 °C
- Residue amount ([2]; Table 1): 10.6%
Substance: Titanium bis[2,2-dimethyl-5-(ethoxy)imino-3-heptanoate] [Ti(22dmeih)2]

- Vaporization temp. ([1]; Table 1): 285 °C
- Residue amount ([2]; Table 1): 3.6%
Substance: Titanium bis[2,6-dimethyl-5-(1-methylethoxy)imino-3-heptanoate] [Ti(26dm1meih)2]

- Vaporization temp. ([1]; Table 1): 283 °C
- Residue amount ([2]; Table 1): 8.3%
Substance: Titanium bis[2,6-dimethyl-5-(2-methylethoxy)imino-3-heptanoate] [Ti(26dm2meih)2]

- Vaporization temp. ([1]; Table 1): 303 °C
- Residue amount ([2]; Table 1): 7.6%
Substance: Titanium bis[4-(1-ethylethoxy)imino-2-pentanoate] [Ti(1eeip)2]

- Vaporization temp. ([1]; Table 1): 323 °C
- Residue after evaporation [2]: about 8%
- Residue amount ([2]; Table 1): 8.0%
- Stability on standing in air (NMR) [5]: no peaks of non-coordinated ligands
- Solubility in methanol [4]: soluble
- Solubility in n-butyl acetate [4]: insoluble
Substance: Titanium bis[4-(ethoxy)imino-2-pentanoate] [Ti(eip)2]

- Residue amount ([2]; Table 1): 26.6%
Substance: Titanium bis[4-(n-propoxy)imino-2-pentanoate] [Ti(pip)2]

— patent publication US20020058843A1, “Novel group IV metal precursors and a method of chemical vapor deposition using the same” (priority 2000, published 2002)
